Reference: ChEMBL document CHEMBL1201862, “PubChem BioAssay data set” (2004)
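48-hour exposure; five concentrations; linearly interpolated endpoints. The concentration for 50% growth inhibition is given as GI50.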 Activity calls are given as the source filed them. Rule as the data show it: active = GI50 up to about 1.1 µM and inactive = higher. Where a SMILES comes first, the peptide text is derived from it. [ ]: non-standard residue; d: D form. The star is where a group is joined. Phe(2-OMe) = COc1ccccc1C[CH](N)C(=O)O; Cbz = O=C(OCc1ccccc1)*; OBn = c1ccc(CO*)cc1

Tests used:
Assay in all cases: NCI-60 cell line screen, 48 h
RXF 393 = test system: RXF 393
SK-MEL-2 = test system: SK-MEL-2
UACC-62 = test system: UACC-62
U-251 = test system: U-251
A498 = test system: A498
MCF7 = test system: MCF7
NCI-H23 = test system: NCI-H23
NCI-H226 = test system: NCI-H226
NCI-H522 = test system: NCI-H522
HCC 2998 = test system: HCC 2998
HOP-92 = test system: HOP-92
HCT-116 = test system: HCT-116
HL-60 = test system: HL-60
RPMI-8226 = test system: RPMI-8226
OVCAR-8 = test system: OVCAR-8
PC-3 = test system: PC-3
CCRF-CEM = test system: CCRF-CEM
CAKI-1 = test system: CAKI-1
OVCAR-3 = test system: OVCAR-3
MDA-MB-231 = test system: MDA-MB-231
SNB-19 = test system: SNB-19
OVCAR-5 = test system: OVCAR-5
UACC-257 = test system: UACC-257
EKVX = test system: EKVX
ACHN = test system: ACHN
Hs-578T = test system: Hs-578T
IGROV-1 = test system: IGROV-1
SF-268 = test system: SF-268
OVCAR-4 = test system: OVCAR-4
MOLT-4 = test system: MOLT-4
SW-620 = test system: SW-620
M14 = test system: M14
NCI/ADR-RES = test system: NCI/ADR-RES
A549 = test system: A549
T47D = test system: T47D
UO-31 = test system: UO-31
COLO 205 = test system: COLO 205
HT-29 = test system: HT-29
Malme-3M = test system: Malme-3M
HOP-62 = test system: HOP-62
SK-MEL-5 = test system: SK-MEL-5
SF-539 = test system: SF-539
KM12 = test system: KM12
SN12C = test system: SN12C
SK-OV-3 = test system: SK-OV-3
SF-295 = test system: SF-295
MDA-MB-435 = test system: MDA-MB-435
MDA-N = test system: MDA-N
786-0 = test system: 786-0
K562 = test system: K562
LOX IMVI = test system: LOX IMVI
SNB-75 = test system: SNB-75
HCT-15 = test system: HCT-15
SK-MEL-28 = test system: SK-MEL-28
SR = test system: SR
TK-10 = test system: TK-10
NCI-H460 = test system: NCI-H460
DU-145 = test system: DU-145
BT-549 = test system: BT-549

## CCCN1CN(c2ccccc2)C2(CCN(CCCC(=O)c3ccc(F)cc3)CC2)C1=O
RXF 393
  GI50: 16.8 µM (inactive)
SK-MEL-2
  GI50: 11.6 µM (inactive)
UACC-62
  GI50: 16.3 µM (inactive)
U-251
  GI50: 14.7 µM (inactive)
A498
  GI50: 0.933 µM (active)
MCF7
  GI50: 0.6 µM (active)
NCI-H23
  GI50: 4.12 µM (inactive)
NCI-H226
  GI50: 6.47 µM (inactive)
NCI-H522
  GI50: 20.3 µM (inactive)
HCC 2998
  GI50: 7.82 µM (inactive)
HOP-92
  GI50: 3.41 µM (inactive)
HCT-116
  GI50: 2.18 µM (inactive)
HL-60
  GI50: 16.6 µM (inactive)
RPMI-8226
  GI50: 12.4 µM (inactive)
OVCAR-8
  GI50: 16.7 µM (inactive)
PC-3
  GI50: 10.2 µM (inactive)
CCRF-CEM
  GI50: 0.991 µM (active)
CAKI-1
  GI50: 4.61 µM (inactive)
OVCAR-3
  GI50: 13.8 µM (inactive)
MDA-MB-231
  GI50: 6.93 µM (inactive)
SNB-19
  GI50: 13.2 µM (inactive)
OVCAR-5
  GI50: 5.06 µM (inactive)
UACC-257
  GI50: 0.405 µM (active)
EKVX
  GI50: 14 µM (inactive)
ACHN
  GI50: 2.13 µM (inactive)
Hs-578T
  GI50: 13.2 µM (inactive)
IGROV-1
  GI50: 2.54 µM (inactive)
SF-268
  GI50: 5.56 µM (inactive)
OVCAR-4
  GI50: 2.48 µM (inactive)
MOLT-4
  GI50: 4.2 µM (inactive)
SW-620
  GI50: 5.15 µM (inactive)
M14
  GI50: 12.4 µM (inactive)
NCI/ADR-RES
  GI50: 4.53 µM (inactive)
A549
  GI50: 6.61 µM (inactive)
T47D
  GI50: 4.61 µM (inactive)
UO-31
  GI50: 11.8 µM (inactive)
COLO 205
  GI50: 0.169 µM (active)
HT-29
  GI50: 0.631 µM (active)
Malme-3M
  GI50: 14.9 µM (inactive)
HOP-62
  GI50: 2.7 µM (inactive)
SK-MEL-5
  GI50: 1.44 µM (inactive)
SF-539
  GI50: 4.49 µM (inactive)
KM12
  GI50: 16.3 µM (inactive)
SN12C
  GI50: 2.94 µM (inactive)
SK-OV-3
  GI50: 19.1 µM (inactive)
SF-295
  GI50: 11 µM (inactive)
MDA-MB-435
  GI50: 11 µM (inactive)
MDA-N
  GI50: 9.38 µM (inactive)
786-0
  GI50: 5.15 µM (inactive)
K562
  GI50: 16.3 µM (inactive)
LOX IMVI
  GI50: 4.41 µM (inactive)
SNB-75
  GI50: 15 µM (inactive)
HCT-15
  GI50: 4.31 µM
SK-MEL-28
  GI50: 19.2 µM (inactive)
SR
  GI50: 16.6 µM (inactive)
TK-10
  GI50: 6.62 µM (inactive)
NCI-H460
  GI50: 12.7 µM (inactive)
DU-145
  GI50: 1.53 µM (inactive)

## COC(=O)C1=CN(C2CCCCC2)C2(c3ccccc3)c3ccccc3C(=O)OC(=O)C12 (stereo not given)
RXF 393
  GI50: 23 µM (inactive)
SK-MEL-2
  GI50: > 100 µM (inactive)
U-251
  GI50: 99.3 µM (inactive)
A498
  GI50: > 100 µM (inactive)
MCF7
  GI50: > 100 µM (inactive)
NCI-H23
  GI50: > 100 µM (inactive)
NCI-H226
  GI50: > 100 µM (inactive)
NCI-H522
  GI50: > 100 µM (inactive)
BT-549
  GI50: > 100 µM (inactive)
HCC 2998
  GI50: 27 µM (inactive)
HOP-92
  GI50: 39 µM (inactive)
HCT-116
  GI50: 64.9 µM (inactive)
HL-60
  GI50: 15.2 µM (inactive)
OVCAR-8
  GI50: > 100 µM (inactive)
PC-3
  GI50: 71.6 µM (inactive)
CCRF-CEM
  GI50: > 100 µM (inactive)
CAKI-1
  GI50: 46.8 µM (inactive)
OVCAR-3
  GI50: > 100 µM (inactive)
MDA-MB-231
  GI50: 34.7 µM (inactive)
SNB-19
  GI50: > 100 µM (inactive)
OVCAR-5
  GI50: > 100 µM (inactive)
UACC-257
  GI50: 49.2 µM (inactive)
EKVX
  GI50: > 100 µM (inactive)
ACHN
  GI50: > 100 µM (inactive)
IGROV-1
  GI50: > 100 µM (inactive)
SF-268
  GI50: > 100 µM (inactive)
OVCAR-4
  GI50: > 100 µM (inactive)
MOLT-4
  GI50: 10.6 µM (inactive)
SW-620
  GI50: > 100 µM (inactive)
M14
  GI50: > 100 µM (inactive)
NCI/ADR-RES
  GI50: > 100 µM (inactive)
A549
  GI50: 95.5 µM (inactive)
UO-31
  GI50: > 100 µM (inactive)
COLO 205
  GI50: 72.8 µM (inactive)
HT-29
  GI50: 62.2 µM (inactive)
Malme-3M
  GI50: > 100 µM (inactive)
HOP-62
  GI50: 90.8 µM (inactive)
SK-MEL-5
  GI50: > 100 µM (inactive)
SF-539
  GI50: > 100 µM (inactive)
KM12
  GI50: > 100 µM (inactive)
SN12C
  GI50: > 100 µM (inactive)
SK-OV-3
  GI50: > 100 µM (inactive)
SF-295
  GI50: > 100 µM (inactive)
MDA-MB-435
  GI50: 46.5 µM (inactive)
MDA-N
  GI50: 58.5 µM (inactive)
786-0
  GI50: > 100 µM (inactive)
K562
  GI50: 20.1 µM (inactive)
LOX IMVI
  GI50: 42.3 µM (inactive)
SNB-75
  GI50: > 100 µM (inactive)
HCT-15
  GI50: > 100 µM
SK-MEL-28
  GI50: > 100 µM (inactive)
TK-10
  GI50: > 100 µM (inactive)
NCI-H460
  GI50: 80.2 µM (inactive)
DU-145
  GI50: > 100 µM (inactive)

## COC(=O)C(Cc1ccccc1OC)NC(=O)C(CC(=O)OCc1ccccc1)NC(=O)OCc1ccccc1 (stereo not given) (Cbz-Asp(OBn)-[Phe(2-OMe)]-OMe; configuration not given here)
RXF 393
  GI50: 70.8 µM (inactive)
SK-MEL-2
  GI50: > 100 µM (inactive)
UACC-62
  GI50: 82 µM (inactive)
U-251
  GI50: 97.5 µM (inactive)
A498
  GI50: 88.1 µM (inactive)
MCF7
  GI50: 54 µM (inactive)
NCI-H23
  GI50: > 100 µM (inactive)
NCI-H226
  GI50: > 100 µM (inactive)
BT-549
  GI50: > 100 µM (inactive)
HCC 2998
  GI50: > 100 µM (inactive)
HOP-92
  GI50: > 100 µM (inactive)
HCT-116
  GI50: 55.5 µM (inactive)
HL-60
  GI50: 34.5 µM (inactive)
RPMI-8226
  GI50: 41 µM (inactive)
OVCAR-8
  GI50: > 100 µM (inactive)
PC-3
  GI50: 60 µM (inactive)
CCRF-CEM
  GI50: 38 µM (inactive)
SNB-19
  GI50: > 100 µM (inactive)
OVCAR-5
  GI50: > 100 µM (inactive)
UACC-257
  GI50: > 100 µM (inactive)
EKVX
  GI50: > 100 µM (inactive)
ACHN
  GI50: > 100 µM (inactive)
Hs-578T
  GI50: > 100 µM (inactive)
IGROV-1
  GI50: > 100 µM (inactive)
MOLT-4
  GI50: 33.7 µM (inactive)
SW-620
  GI50: > 100 µM (inactive)
M14
  GI50: > 100 µM (inactive)
A549
  GI50: 60.3 µM (inactive)
UO-31
  GI50: 64.6 µM (inactive)
COLO 205
  GI50: 46.3 µM (inactive)
HT-29
  GI50: 65.3 µM (inactive)
Malme-3M
  GI50: > 100 µM (inactive)
HOP-62
  GI50: > 100 µM (inactive)
SK-MEL-5
  GI50: > 100 µM (inactive)
KM12
  GI50: > 100 µM (inactive)
MDA-N
  GI50: 95.7 µM (inactive)
786-0
  GI50: > 100 µM (inactive)
K562
  GI50: 61.5 µM (inactive)
SNB-75
  GI50: > 100 µM (inactive)
SK-MEL-28
  GI50: 38.6 µM (inactive)
SR
  GI50: 27.9 µM (inactive)
TK-10
  GI50: > 100 µM (inactive)
NCI-H460
  GI50: 34.4 µM (inactive)
